How the values were obtained:
A2058 = assay: MTT assay (metabolic activity); type: cell-based, human
Experimental: (§1) Cell lines A2058 (human melanoma lymph node metastasis, cat. 91100402) from ECACC (Public Health England, Salisbury, UK) and BLM (human melanoma lung metastasis a gift from prof. K. Smetana, Institute of Anatomy, Charles University in Prague) were cultured in a medium consisting of high glucose Dulbecco’s Modified Eagle’s Medium (DMEM) and sodium pyruvate (GE Healthcare, Piscataway, NJ, USA). The growth medium was supplemented with a 10% fetal bovine serum (FBS) and antibiotic/antimycotic solution 1 × HyClone™ (GE Healthcare, Chicago, IL, USA). The MCF-10A (human mammary epithelial cells) cell line was cultured in a medium consisting of high glucose Dulbecco’s Modified Eagle’s Medium F12 (DMEM/F12) (Biosera, Kansas City, MO, USA). The growth medium was supplemented with a 10% FBS, antibiotic/antimycotic solution 1 × HyClone™ (GE Healthcare, Chicago, IL, USA), epidermal growth factor (EGF) (20 ng/mL final), hydrocortisone (0.5 μg/mL final) and insulin (10 μg/mL final) (Sigma-Aldrich Chemie, Steinheim, Germany). Cells were cultured in humidified air at 37 °C with atmosphere containing 5% CO2.
(§2) The half-maximal inhibitory concentration values (IC50) and metabolism inhibition of tested synthetic chalcone derivatives were determined by MTT (3-(4,5-di-methylthiazol-2-yl)2,5-diphenyltetrazolium bromide) colorimetric assay (Sigma-Aldrich Chemie, Steinheim, Germany). Tested cell lines were seeded at a density of 5 × 10^3 cells/well in 96-well culture plates. After 24 h, the tested chalcones in concentrations of 100, 50 and 10 μmol/L were added and incubation proceeded for the next 72 h. In the next step, 10 μL of MTT (5 mg/mL) was added to each well containing cells and incubated for another 4 h at 37 °C during which MTT was metabolized to insoluble formazan in cells. After 4 h, 100 μL of a 10% sodium dodecyl sulphate (SDS) was added to each well and another 24 h were allowed for the formazan crystals to dissolve. The metabolic activity of cells was evaluated by measuring the absorbance at wavelength 540 nm using the automated Cytation™ 3 Cell Imaging Multi-Mode Reader (Biotek, Winooski, VT, USA). Three independent analyses were performed.

MCF-10A = assay: MTT assay (metabolic activity); type: cell-based; conditions: Homo sapiens; MCF-10A noncancer cell line, 72 h incubation
Experimental: as §1, §2

A2058 melanoma cells [1] = assay: Flow cytometric analysis of DNA damage (ATM, SMC1, H2A.X phosphorylation); type: cell-based, human
Experimental: (§3) The A2058 and BLM melanoma cells were seeded 1 × 10^6 in Petri dishes with complete growth medium and cultivated for 24 h. After cell cultivation, the A2058 cells were treated with chalcone 1C at 10 μmol/L concentration, BLM cells at 20 μmol/L concentration and both melanoma cell lines were treated with DMSO as the negative control at the same concentrations for 24, 48 and 72 h. Adherent and floating cells were harvested, pelleted by centrifugation at 1200 rpm for 5 min. Pellets were resuspended in washing buffer (PBS) and divided for a particular analysis. Afterwards, cells were prepared according to assay kit protocols or fixed with cold 4% paraformaldehyde (15 min) and permeabilized with 90% methanol (10 min on ice) with washing steps (PBS) and stained prior to analysis (Table 5) for 15 min in the dark at room temperature. Fluorescence was detected using a BD FACSCalibur^TM Flow Cytometer (Becton Dickinson, San Jose, CA, USA).

BLM melanoma cells [2] = assay: as above; type: cell-based, human
Experimental: as §3

A2058 melanoma cells [3] = assay: Western blot analyses of protein expression/phosphorylation; type: cell-based, human
Experimental: (§4) Melanoma cells (A2058 and BLM) were treated with the tested chalcone 1C (10 μM and 20 μM) for 24, 48 and 72 h. Protein lysates from melanoma cells were prepared using a Laemmle lysis buffer containing glycerol, 1M Tris/HCl (pH 6.8), 20% sodium dodecyl sulfate (SDS), deionized H20, phosphatase and protease inhibitors (Sigma-Aldrich) and a sonication process. The protein concentrations were determined by the Pierce® BCA Protein Assay Kit (Thermo Scientific, Rockford, IL, USA) and measured by an automated Cytation™ 3 Cell Imaging Multi-Mode Reader (Biotek) at a wavelength of 570 nm. Proteins (25–40 μg of sample per well) were separated on SDS-PAA gel (12%) at 100 V for 3 h and transferred to a polyvinylidene difluoride (PVDF) membrane using the iBlot™ 2 Dry Blotting System (Invitrogen, Carlsbad, CA, USA). Membranes with transferred proteins were blocked in 5% BSA (bovine serum albumin; SERVA, Heidelberg, Germany) or 5% non-fat dry milk (Cell Signaling Technology®, Danvers, MA, USA) in TBS-Tween (pH 7.4) for 1 h at room temperature to minimise non-specific binding. Blocking was followed by incubation with primary antibodies (Table 6) overnight at 4 °C. The next day, membranes were washed in TBS-Tween (3 × 5 min) and incubated with the corresponding horseradish peroxidase (HRP)-conjugated anti-mouse or anti-rabbit secondary antibody for 1 h at room temperature. After incubation, membranes were washed again in TBS-Tween (3 × 5 min) and the expression of proteins was detected using the MF-ChemiBIS 2.0 Imaging System (DNR BIO-Imaging Systems, Jerusalem, Israel) with chemiluminescent ECL substrate (Thermo Scientific, Rockford, IL, USA). A densitometric analysis of Western Blot (WB) results was performed using the Image Studio™ Lite Software (LI-COR Biosciences, Lincoln, NE, USA). Equal loading was verified by using the β-actin antibody. Three independent analyses were performed.

BLM melanoma cells [4] = assay: as above; type: cell-based, human
Experimental: as §4

[5] = A2058, 1C 10 μmol/L, 24, 48 and 72 h
[6] = 1C 20 μmol/L, maximum after 72 h

Structure (SMILES): COc1cccc(OC)c1C(=O)/C=C/c1c2ccccc2nc2ccccc12 [Compound 1C, (2E)-3-(acridin-9-yl)-1-(2,6-dimethoxyphenyl)prop-2-en-1-one]
- IC50 (A2058; Homo sapiens, A2058, 72 h incubation): 7.96 ± 0.38 µM
- Selectivity index, A2058 (MTT) (A2058; MCF-10A vs A2058, calculated on the basis of MTT results): 4.6
- IC50 (MCF-10A): 36.5 ± 0.87 µM
- Phosphorylation of H2A.X (A2058 melanoma cells [1]; [5]): significantly induced
- Phosphorylation of SMC1 (A2058 melanoma cells [1]; [5]): significant phosphorylation
- Phosphorylation of ATM (A2058 melanoma cells [1]; A2058, 1C 10 μmol/L, time-dependent (24, 48 and 72 h)): significantly induced
- Phosphorylation of H2A.X (BLM melanoma cells [2]; 1C 20 μmol/L, 24, 48 and 72 h): significantly induced
- Phosphorylation of SMC1 (BLM melanoma cells [2]; 1C 20 μmol/L, 24, 48 and 72 h): significant phosphorylation
- Phosphorylation of ATM (BLM melanoma cells [2]; 1C 20 μmol/L, time-dependent (24, 48 and 72 h)): significantly induced
- Levels of antiapoptotic protein Bcl-xL (WB) (A2058 melanoma cells [3]; A2058, 1C 10 μmol/L): decreased levels
- Phosphorylation of Bad (WB) (A2058 melanoma cells [3]; A2058, 1C 10 μmol/L): increasing up to 48 h
- Phosphorylation of Bcl-2 (WB) (A2058 melanoma cells [3]; A2058, 1C 10 μmol/L): increased in A2058 up to 48 h and decreased at 72 h
- Phosphorylation of Chk1 (WB) (A2058 melanoma cells [3]; A2058, 1C 10 μmol/L, 24, 48 (maximum) and 72 h): significantly induced
- Levels of cleaved PARP (89 kDa) (WB) (A2058 melanoma cells [3]; [5]): significantly increased
- Total and phosphorylated p53 protein (WB) (A2058 melanoma cells [3]; [5]): significant increase
- Expression of p21 protein (WB) (A2058 melanoma cells [3]; A2058, 1C 10 μmol/L, after 24 and 48 h): significant increase
- Phospho-JNK (WB) (A2058 melanoma cells [3]; A2058, 1C 10 μmol/L, all tested timepoints): significantly increased
- Phosphorylated form of p38 MAPK (WB) (A2058 melanoma cells [3]; A2058, 1C 10 μmol/L, mainly after 48 h): significantly increased
- Expression of α-, α1C- and β-tubulin (WB) (A2058 melanoma cells [3]; A2058, 1C 10 μmol/L, maximum after 48 and 72 h): significant upregulation
- Phosphorylation of ERK1/2 (WB) (A2058 melanoma cells [3]; A2058, 1C 10 μmol/L, maximum after 48 h): significantly increased
- Phosphorylated cyclin B1 (WB) (A2058 melanoma cells [3]; A2058, 1C 10 μmol/L, maximum after 72 h): significant downregulation
- Amounts of proapoptotic protein Bax and Bad (WB) (A2058 melanoma cells [3]; A2058, 1C 10 μmol/L, maximum at 48 h): significantly increased
- Total Bcl-2 protein (WB) (A2058 melanoma cells [3]; A2058, 1C 10 μmol/L, up to 48 h): upregulated
- Expression of p21 protein (WB) (BLM melanoma cells [4]; 1C 20 μmol/L): showed an increase and maintained a trend
- Levels of antiapoptotic protein Bcl-xL (WB) (BLM melanoma cells [4]; 1C 20 μmol/L): decreased levels
- Phosphorylation of Bad (WB) (BLM melanoma cells [4]; 1C 20 μmol/L): increasing up to 48 h
- Phosphorylation of Bcl-2 (WB) (BLM melanoma cells [4]; 1C 20 μmol/L): increased up to the 72 h time point
- Phosphorylation of Chk1 (WB) (BLM melanoma cells [4]; 1C 20 μmol/L): consilient trend of Chk1 phosphorylation
- Phosphorylation of ERK1/2 (WB) (BLM melanoma cells [4]; 1C 20 μmol/L): consilient trend of ERK1/2 phosphorylation
- Total Bcl-2 protein upregulated (WB) (BLM melanoma cells [4]; 1C 20 μmol/L): it was not
- p53 phosphorylation (WB) (BLM melanoma cells [4]; 1C 20 μmol/L): phosphorylation increased late on 72 h
- Levels of cleaved PARP (89 kDa) (WB) (BLM melanoma cells [4]; 1C 20 μmol/L, 24, 48 and 72 h): significantly increased
- Total p53 protein (WB) (BLM melanoma cells [4]; 1C 20 μmol/L, 24, 48 and 72 h): maintenanted on basic levels as DMSO treated controls, with little decrease at 24 h
- Phospho-JNK (WB) (BLM melanoma cells [4]; 1C 20 μmol/L, all tested timepoints): significantly increased
- Phosphorylated form of p38 MAPK (WB) (BLM melanoma cells [4]; 1C 20 μmol/L, mainly after 48 h): significantly increased
- Expression of α1C-tubulin (WB) (BLM melanoma cells [4]; [6]): upregulation
- Phosphorylated cyclin B1 (WB) (BLM melanoma cells [4]; [6]): significant downregulation
- Amounts of proapoptotic protein Bax and Bad (WB) (BLM melanoma cells [4]; 1C 20 μmol/L, maximum at 48 h): significantly increased
- Expression of α- and β-tubulin (WB) (BLM melanoma cells [4]; 1C 20 μmol/L, time-dependent): significant downregulation

Reference: article PMC9603750, “Chalcone-Acridine Hybrid Suppresses Melanoma Cell Progression via G2/M Cell Cycle Arrest, DNA Damage, Apoptosis, and Modulation of MAP Kinases Activity” (International Journal of Molecular Sciences, 2022)
